From ChEMBL document CHEMBL1201862, “PubChem BioAssay data set” (2004) come the findings set out here.

Activity calls are given as the source filed them. Where only a bound is given, the exact number is not on record here.

Assay [1] in a line: HEK293 cell cytotoxicity, dose response, cytotoxicity control, cherry-picks, set 5 (AID 1053117). The format is functional, cell-based.
Assay [2] can be described thus: HepG2 cell cytotoxicity, dose response, cytotoxicity control, cherry-picks, set 5 (AID 1053118). The format is functional, cell-based.
Assay [3] in a line: A549 cell cytotoxicity, dose response, cytotoxicity control, cherry-picks, 26 µM top dose (AID 1053119). The format is functional, cell-based.
A short description of assay [4]: Late stage assay provider results from the probe development effort to identify selective inhibitors of heat shock protein 90 (HSP90): Absorbance-based cell proliferation assay in MCF7 cells. It is filed as functional.
Assay [5] in a line: Late stage assay provider results from the probe development effort to identify selective inhibitors of heat shock protein 90 (HSP90): Absorbance-based cell proliferation assay in SKBR3 cells. It is filed as functional. The note with it: SK-BR-3.
A short description of assay [6]: A375 melanoma cell cytotoxicity, dose response, counter-screen for MITF inhibitor project, CellTiter-Glo luminescence, dry powder, set 2 (AID 624489).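 Note: actives are compounds lowering A375 viability meaning general cytotoxicity.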 It is filed as functional, cell-based. The note with it: A-375. (In general: Counterscreens check selectivity or assay interference.)
A short description of assay [7]: A375 melanoma cell viability loss, dose response, counter-screen for MITF inhibitor project, CellTiter-Glo luminescence, dry powder, set 4 (AID 624364).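 Note: A375 melanoma cells are MITF independent so this is a counter screen.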 As to conditions: A-375. It is filed as functional, cell-based.
Assay [8] concerns the target Potassium channel subfamily K member 3 (Homo sapiens, UniProt O14649). Briefly: TASK1 (KCNK3) potassium channel inhibitors, SAR follow-up, CHO cells, FluxOR thallium flux (AID 652212). It is filed as functional.
Assay [9] deals with Potassium channel subfamily K member 9 (Homo sapiens, UniProt Q9NPC2). Description: TASK3 (KCNK9) channel inhibitors, thallium flux, SAR follow-up, selectivity assay for TASK1 inhibitor project, cell-based, FluxOR thallium flux, concentration-response (AID 652211).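 Note: potency is for inhibitors of the channel.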 The format is functional.
Chain of Potassium channel subfamily K member 9 (Q9NPC2 whole entry): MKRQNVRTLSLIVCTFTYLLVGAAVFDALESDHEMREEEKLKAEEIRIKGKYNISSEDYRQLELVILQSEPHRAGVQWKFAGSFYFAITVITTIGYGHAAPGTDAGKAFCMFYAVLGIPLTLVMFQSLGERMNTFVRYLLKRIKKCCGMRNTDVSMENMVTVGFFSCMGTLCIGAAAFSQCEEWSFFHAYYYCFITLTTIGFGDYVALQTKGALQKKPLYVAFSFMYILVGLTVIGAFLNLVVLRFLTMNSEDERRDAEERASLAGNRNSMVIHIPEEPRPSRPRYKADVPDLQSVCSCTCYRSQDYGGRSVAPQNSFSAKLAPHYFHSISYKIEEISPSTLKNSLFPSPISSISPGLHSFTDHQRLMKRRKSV
For assay [10], the target named is Endoplasmic reticulum aminopeptidase 1 (Homo sapiens, UniProt Q9NZ08). Description: ERAP1 aminopeptidase inhibitors, dose response, biochemical, cherry-pick, set 2, plate reader (AID 743314).
Chain of Endoplasmic reticulum aminopeptidase 1 (Q9NZ08 whole entry): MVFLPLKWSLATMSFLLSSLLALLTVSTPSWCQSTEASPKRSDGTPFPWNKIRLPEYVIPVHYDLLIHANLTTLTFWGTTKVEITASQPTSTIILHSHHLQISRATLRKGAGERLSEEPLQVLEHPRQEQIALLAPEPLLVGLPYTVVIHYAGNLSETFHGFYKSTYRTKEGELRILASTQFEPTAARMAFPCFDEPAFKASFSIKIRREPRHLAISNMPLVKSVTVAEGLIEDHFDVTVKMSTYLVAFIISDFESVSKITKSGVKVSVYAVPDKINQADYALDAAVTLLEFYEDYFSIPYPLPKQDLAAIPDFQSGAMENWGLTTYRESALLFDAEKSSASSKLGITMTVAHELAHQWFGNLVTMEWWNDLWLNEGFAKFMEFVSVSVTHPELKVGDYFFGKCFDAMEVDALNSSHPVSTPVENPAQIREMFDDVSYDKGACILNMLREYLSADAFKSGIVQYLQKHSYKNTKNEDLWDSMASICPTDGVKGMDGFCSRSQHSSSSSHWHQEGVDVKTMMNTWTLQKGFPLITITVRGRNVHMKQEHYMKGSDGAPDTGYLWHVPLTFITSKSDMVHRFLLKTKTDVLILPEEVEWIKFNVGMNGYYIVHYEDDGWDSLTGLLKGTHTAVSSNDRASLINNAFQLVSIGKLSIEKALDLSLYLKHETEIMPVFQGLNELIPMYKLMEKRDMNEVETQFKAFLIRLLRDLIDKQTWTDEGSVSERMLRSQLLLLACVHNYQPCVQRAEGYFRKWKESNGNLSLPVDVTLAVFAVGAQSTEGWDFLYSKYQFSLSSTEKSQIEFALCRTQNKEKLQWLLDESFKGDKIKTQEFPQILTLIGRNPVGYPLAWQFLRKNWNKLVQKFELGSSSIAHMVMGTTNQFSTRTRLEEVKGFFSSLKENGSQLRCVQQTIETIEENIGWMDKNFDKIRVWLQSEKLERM
Assay [11] in a line: T. cruzi intracellular amastigote growth inhibition, dose response, imaging, CA-I/72 strain, bovine embryo skeletal muscle, dry powder (AID 651885). It is filed as functional, cell-based.
The nature of assay [12]: NIH/3T3 fibroblast cytotoxicity, dose response, cytotoxicity control, cell-based, plate reader, dry powder, set 2 (AID 652280). It is filed as functional. As to conditions: NIH3T3.
Assay [13] can be described thus: T. cruzi growth inhibition in host cells, dose response, cell-based, plate reader, dry powder, set 2 (AID 652275). It is filed as functional.
Assay [14] is described as follows: HEK293T cytotoxicity, dose response, cytotoxicity control for miR-122 modulator project, cell-based, activator set, cherry-pick (AID 720690).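 Note: HEK293T human cells scored for general mammalian cytotoxicity.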 It is filed as functional.
The nature of assay [15]: HEK293T cytotoxicity, dose response, cytotoxicity control for miR-122 modulator project, cell-based, inhibitor set, cherry-pick, set 2 (AID 720697). The format is functional.
Assay [16] can be described thus: Luminescence-based cell-based high throughput dose response assay to identify activators of the DAF-12 from the parasite S. stercoralis (ssDAF-12). It is filed as functional.
Assay [17] in a line: MITF Orthogonal Assay: SK-MEL-5 CTG Assay Measured in Cell-Based System Using Plate Reader - 2084-02_Inhibitor_Dose_DryPowder_Activity_Set7. The format is functional.
Assay [18] is described as follows: MITF: Counter assay: A375 proliferation Measured in Cell-Based System Using Plate Reader - 2084-03_Inhibitor_Dose_DryPowder_Activity_Set8. The format is functional. The note with it: A-375.
Assay [19] in a line: TRPM1 promoter luciferase reporter signal decrease, dose response, MITF inhibitor project, cell-based, SK-MEL-5, dry powder, set 8 (AID 624430). The format is functional. A general note: In a reporter assay the amount or activity of a reporter protein is the signal.

Chain of Potassium channel subfamily K member 3 (O14649 whole entry): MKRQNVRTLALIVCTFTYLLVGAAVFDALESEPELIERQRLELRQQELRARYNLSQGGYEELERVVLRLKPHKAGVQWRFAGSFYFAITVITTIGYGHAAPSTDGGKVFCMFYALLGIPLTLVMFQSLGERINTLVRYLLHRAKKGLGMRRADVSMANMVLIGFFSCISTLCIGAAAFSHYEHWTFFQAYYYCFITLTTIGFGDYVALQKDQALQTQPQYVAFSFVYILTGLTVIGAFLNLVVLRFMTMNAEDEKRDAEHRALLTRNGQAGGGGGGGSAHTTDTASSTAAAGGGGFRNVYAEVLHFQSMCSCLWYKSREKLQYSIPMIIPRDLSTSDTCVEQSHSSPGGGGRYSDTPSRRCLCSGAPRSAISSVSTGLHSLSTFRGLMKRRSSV

By AC50 is commonly meant the midpoint of the concentration-response curve, whichever way the signal moves. `CO[C@H]1CN(C)C(=O)c2cc(NC(=O)Nc3ccc(Cl)c(Cl)c3)ccc2OC[C@H](C)NC[C@@H]1C`: the half-maximal activity concentration (AC50) in assay [1] was 12.8 µM (active); in assay [2], 13 µM (active); in assay [3], 12.9 µM (active).
Broadly, the IC50 is the concentration at which inhibition is half-maximal. Take `O=C1OC(=O)/C(=C\NCCC2=CCCCC2)C=C1Br`: the IC50 is 3 µM (active) in [4] and 8 µM (active) in assay [5].
For `O=C(NC1=C(c2ccc(OC(F)(F)F)cc2)C(=O)c2ccccc2C1=O)c1ccccc1F`, the results for the AC50 in [6] and in assay [7] were 30.5 µM (active) and 34.4 µM (active), respectively.
For `CCOc1ccccc1NC(=O)c1cccc(NC(=O)c2cccc(OC)c2)c1`, the 50% inhibitory concentration (IC50) in [8] is 0.005 µM (active); in [9], 2.33 µM (active).
Regarding `CCNC(=O)[C@H]1[C@H](CO)[C@H]2Cn3c(ccc(/C=C/c4ccccc4)c3=O)[C@@H]1N2`, the AC50 in [10] is 11.3 µM (active).
For `C[C@@H]1CN([C@@H](C)CO)C(=O)c2cc(-c3cccnc3)cnc2O[C@H]1CN(C)Cc1ccc(Oc2ccccc2)cc1`, the IC50 in assay [11] is > 20 µM (inactive). In addition, the concentration at half-maximal activity (AC50) was 11.9 µM (active) in [12] and 1.95 µM (active) in assay [13].
Take `CN1C(=O)c2cc(NS(=O)(=O)c3cccc(F)c3)ccc2OC[C@@H]2O[C@@H](CC(=O)NCCN3CCCCC3)CC[C@H]21`: the AC50 in [14] is 26.1 µM (active); in assay [15], 0.254 µM (active).
Take `CC1=CC(c2ccccc2)=Nc2ccc(C)cc2N1`: in assay [16], the IC50 is > 67.5 µM (inactive).
Consider `O=C1C=C(Nc2cccc(C(F)(F)F)c2)C(=O)c2ccccc21`, for which the figures for the concentration at half-maximal activity (AC50) in assay [17], in [18] and in assay [19] were 0.463 µM (active), > 70 µM (inactive) and > 70 µM (inactive), respectively.
